Inhibition and Km data for 11 compounds are collected here from ChEMBL document CHEMBL5136976, “A Perspective on Medicinal Chemistry Approaches for Targeting Pyruvate Kinase M2” (J Med Chem, 2022).

A word on the inhibition: it is the share of the control response that was lost under treatment. As a reminder, the Km is the concentration of substrate that gives half-maximal velocity.

Data set [1] concerns the target Pyruvate kinase PKM (Homo sapiens) (UniProt P14618). Put plainly: Inhibition of recombinant PKM2 (unknown origin) Asp178, Asp177, Ser362, Lys367, Hie78, Ser205, Gly128, Thr129, Tyr83, Asn75, Ile51 residues at 40 uM relative to control.
Data set [2] shares this target. Put plainly: Inhibition of PKM2 (unknown origin). Details: concentration or dose not given beside the values. The following applies: concentration not given here.
Data set [3] has as its system CCc1nnc(SCc2ccccc2F)c2cc3sc(C)cc3n12. In words: Binding affinity to PKM2 (unknown origin) assessed as Michaelis-constant. Particulars: Homo sapiens; filed as activator.

Sequence of Pyruvate kinase PKM (Homo sapiens) (P14618 2-531 limits assumed): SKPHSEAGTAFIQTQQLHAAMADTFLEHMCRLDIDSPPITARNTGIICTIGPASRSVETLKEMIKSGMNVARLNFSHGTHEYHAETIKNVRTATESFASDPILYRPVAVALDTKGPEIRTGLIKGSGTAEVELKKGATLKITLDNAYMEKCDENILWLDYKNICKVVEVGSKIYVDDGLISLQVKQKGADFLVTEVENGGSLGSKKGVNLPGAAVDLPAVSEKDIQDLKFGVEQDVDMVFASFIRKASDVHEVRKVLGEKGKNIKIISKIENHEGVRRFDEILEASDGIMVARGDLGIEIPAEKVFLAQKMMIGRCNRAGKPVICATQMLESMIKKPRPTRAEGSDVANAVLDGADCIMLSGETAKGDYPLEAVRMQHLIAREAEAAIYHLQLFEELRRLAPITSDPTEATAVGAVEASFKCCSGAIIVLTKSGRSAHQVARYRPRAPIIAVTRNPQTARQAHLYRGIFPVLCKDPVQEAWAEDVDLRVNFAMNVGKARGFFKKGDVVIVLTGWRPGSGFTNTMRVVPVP
Sequence of Pyruvate kinase PKM (Homo sapiens), P14618 (P14618 whole entry): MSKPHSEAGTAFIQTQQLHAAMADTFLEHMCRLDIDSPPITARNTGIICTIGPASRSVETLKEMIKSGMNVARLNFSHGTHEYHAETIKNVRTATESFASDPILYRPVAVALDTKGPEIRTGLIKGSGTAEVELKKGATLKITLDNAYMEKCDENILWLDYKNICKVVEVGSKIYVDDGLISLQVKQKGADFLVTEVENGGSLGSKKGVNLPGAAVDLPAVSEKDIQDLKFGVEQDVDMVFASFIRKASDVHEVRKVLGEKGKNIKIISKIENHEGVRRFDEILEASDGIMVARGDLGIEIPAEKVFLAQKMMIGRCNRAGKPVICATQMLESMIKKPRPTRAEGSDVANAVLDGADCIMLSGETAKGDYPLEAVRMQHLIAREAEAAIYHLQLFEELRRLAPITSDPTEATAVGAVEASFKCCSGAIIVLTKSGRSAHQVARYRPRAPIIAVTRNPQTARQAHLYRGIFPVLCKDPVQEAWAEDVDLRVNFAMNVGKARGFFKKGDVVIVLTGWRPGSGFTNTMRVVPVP

Turning to `O=C(O[C@@H]1Cc2c(O)cc(O)cc2O[C@@H]1c1cc(O)c(O)c(O)c1)c1cc(O)c(O)c(O)c1`, the inhibition in data set [1] is 49%.

For `CC(C)[C@H](N)C(=O)O`, in data set [2], the inhibition was 65%.

In turn, `N[C@@H](CS)C(=O)O` registered an inhibition in data set [2] of 20%.

In data set [2], `C[C@@H](O)[C@H](N)C(=O)O` came in with an inhibition of 20%.

The compound `CSCC[C@H](N)C(=O)O` gave an inhibition in data set [2] of 65%.

In data set [2], `C[C@H](N)C(=O)O` showed an inhibition of 100%.

Turning to “Pyruvate kinase PKM (Homo sapiens), P14618”, in data set [3], the Km amounted to 480 µM.

As for `O=C(O)[C@@H]1CCCN1`, the inhibition in data set [2] amounted to 65%.

`N[C@@H](Cc1ccccc1)C(=O)O` gave an inhibition in data set [2] of 100%.

On to `CC[C@H](C)[C@H](N)C(=O)O`, for which the inhibition in data set [2] was determined as 20%.

As for `N[C@@H](Cc1c[nH]c2ccccc12)C(=O)O`, the inhibition in data set [2] is 65%.
